Laboratory results reported in publication PMC9598282 (Antibiotics, 2022).
In brackets after ≈: the same amount, converted by molar mass. Several values for one entry are separate records, joined by “and”; a condition that tells them apart may be missing. Equal entries are not always repeated. Bridge positions count the residues as written; N and C are the ends. Square brackets hold non-standard residues; d marks the D form. Peptide text beside a SMILES is read from it. * marks the point of attachment. X1 = CC[C@H](C)CCCCC(=O)*; Dab = NCC[C@H](N)C(=O)O

How the values were obtained:
E. coli ATCC 25922 [1] = assay: microbe, parasite or virus in culture; assay type: cell-based, Escherichia coli
Procedure, shortened: (§1)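 Two-fold serial dilutions of antibiotic and guanidinylated polymyxin adjuvant crossed in checkerboard against bacterial inoculum prepared as for susceptibility testing; 18 h at 37 °C, growth read as OD590. FIC index = sum of each agent's MIC in combination divided by its MIC alone; ≤0.5 synergy, >0.5–4 additivity, >4 antagonism.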

A. baumannii ATCC 17978 [2] = assay: microbe, parasite or virus in culture; assay type: cell-based, Acinetobacter baumannii
Procedure, shortened: as §1

P. aeruginosa 101243 = assay type: cell-based, Pseudomonas aeruginosa; settings: colistin-resistant isolate
Procedure: (§2) For the preparation of the bacterial solution, overnight grown culture was diluted in 0.85% saline solution, adjusted to 0.5 McFarland turbidity and further diluted in Mueller–Hinton broth for inoculation to a final concentration of 5 × 10^5 colony forming units/mL (CFU/mL). The agents were serially diluted two-fold in a 96-well plate, and equal volumes of bacterial solution were subsequently added to the designated wells. The well consisting of bacterial solution served as the positive control, while the well containing only media served as the negative control. The plate was then incubated at 37 °C for 18 h. After incubation, an Emax Plus microplate reader (Molecular Devices, Union City, CA, USA) was used to measure the optical density (OD) at a wavelength of 590 nm to confirm the turbidity. The antibacterial activity corresponded to the MIC, which is defined as the lowest concentration of the agent necessary to inhibit visible bacterial growth.

P. aeruginosa P259-96918 = assay type: cell-based, Pseudomonas aeruginosa; settings: colistin-susceptible MDR isolate
Procedure: as §2

P. aeruginosa 114228 = assay type: cell-based, Pseudomonas aeruginosa; settings: colistin-resistant isolate
Procedure: as §2

[3] = tested on: P. aeruginosa P262-101856; assay type: cell-based, Pseudomonas aeruginosa; settings: colistin-susceptible MDR isolate
Procedure: as §2

[4] = tested on: P. aeruginosa P264-104354; assay type: cell-based, Pseudomonas aeruginosa; settings: colistin-susceptible MDR isolate
Procedure: as §2

P. aeruginosa PA 109084 = assay: MIC, broth microdilution; assay type: cell-based, Pseudomonas aeruginosa; settings: β-lactamase harboring isolate
Procedure: as §2

P. aeruginosa PA 107092 = assay: MIC, broth microdilution; assay type: cell-based, Pseudomonas aeruginosa; settings: β-lactamase harboring isolate
Procedure: as §2

P. aeruginosa PA 108590 = assay: MIC, broth microdilution; assay type: cell-based, Pseudomonas aeruginosa; settings: β-lactamase harboring isolate
Procedure: as §2

P. aeruginosa PA 86052 = assay: MIC, broth microdilution; assay type: cell-based, Pseudomonas aeruginosa; settings: β-lactamase harboring isolate
Procedure: as §2

P. aeruginosa PA 88949 = assay: MIC, broth microdilution; assay type: cell-based, Pseudomonas aeruginosa; settings: β-lactamase harboring isolate
Procedure: as §2

A. baumannii ATCC 17978 [5] = assay type: cell-based, Acinetobacter baumannii; settings: wild-type
Procedure: as §2

A. baumannii 92247 = assay type: cell-based, Acinetobacter baumannii; settings: colistin-resistant isolate
Procedure: as §2

A. baumannii AB027 = assay type: cell-based, Acinetobacter baumannii; settings: colistin-susceptible MDR isolate
Procedure: as §2

A. baumannii AB031 = assay type: cell-based, Acinetobacter baumannii; settings: colistin-susceptible MDR isolate
Procedure: as §2

A. baumannii 110193 = assay type: cell-based, Acinetobacter baumannii; settings: colistin-susceptible MDR isolate
Procedure: as §2

A. baumannii LAC-4 = assay type: cell-based, Acinetobacter baumannii; settings: colistin-susceptible MDR isolate
Procedure: as §2

P. aeruginosa PAO1 [6] = assay: microbe, parasite or virus in culture; assay type: cell-based, Pseudomonas aeruginosa
Procedure, shortened: as §1

K. pneumoniae 113254 = assay type: cell-based, Klebsiella pneumoniae; settings: colistin-resistant isolate
Procedure: as §2

K. pneumoniae 113250 = assay type: cell-based, Klebsiella pneumoniae; settings: colistin-resistant isolate
Procedure: as §2

E. coli 107115 = assay type: cell-based, Escherichia coli; settings: colistin-susceptible MDR isolate
Procedure: as §2

E. coli 94474 = assay type: cell-based, Escherichia coli; settings: colistin-resistant isolate
Procedure: as §2

E. coli 94393 = assay type: cell-based, Escherichia coli; settings: colistin-resistant isolate
Procedure: as §2

E. cloacae 121187 = assay type: cell-based, Enterobacter cloacae; settings: colistin-resistant isolate
Procedure: as §2

E. cloacae 118564 = assay type: cell-based, Enterobacter cloacae; settings: colistin-resistant isolate
Procedure: as §2

P. aeruginosa PAO1 [7] = assay type: cell-based, Pseudomonas aeruginosa; settings: wild-type
Procedure: as §2

Hep G2 cells = assay: Cell viability assay (PrestoBlue); assay type: cell-based, human; settings: 48 h
Procedure: (§3) The cytotoxicity of the guanidinylated polymyxins was evaluated using the cell viability assay as previously described. Human embryonic kidney cells (HEK293) and liver carcinoma cells (Hep G2) were cultured in flasks with Dulbecco’s Modified Eagle’s Medium (DMEM) supplemented with 10% fetal bovine serum. The cells were incubated at 5% CO2 in a humidified atmosphere at 37 °C. Equal volumes of media (50 μL) containing approximately 8000 cells (Hek293) or 5000 cells (HepG2) were added to wells in 96-well plates. The wells containing only media with no cells served as blanks. The plate was incubated for 24 h. Double the final desired concentrations of the agent were subsequently added to each well (experimental and blanks) in a volume of 50 μL. After 48 h incubation, PrestoBlue reagent from Invitrogen (Waltham, MA, USA,) was added to a final concentration of 10% (v/v), and plates were incubated for an additional1 h at 5% CO2. Fluorescence (excitation/emission, 560/590 nm) was measured with a SpectraMax M2 plate reader (Molecular Devices, United States). Values from the blank wells were subtracted from the corresponding wells with cells. The cell viability relative to the controls with a vehicle was calculated. The plots indicate the mean ± standard deviation of two experiments with five samples each. […]

HEK293 cells = assay: Cell viability assay (PrestoBlue); assay type: cell-based, human; settings: 48 h
Procedure: as §3

E. coli ATCC 25922 [8] = assay type: cell-based, Escherichia coli; settings: wild-type
Procedure: as §2

[9] = agent alone, one value per checkerboard plate

Compound | MIC (P. aeruginosa 101243) | MIC (P. aeruginosa P259-96918) | MIC (P. aeruginosa 114228) | MIC [3] | MIC [4] | MIC (P. aeruginosa PA 109084) | MIC (P. aeruginosa PA 107092) | MIC (P. aeruginosa PA 86052) | MIC (P. aeruginosa PA 88949) | MIC (A. baumannii ATCC 17978 [5]) | MIC (A. baumannii 92247) | MIC (A. baumannii AB027) | MIC (A. baumannii 110193) | MIC (A. baumannii LAC-4) | MIC (K. pneumoniae 113254) | MIC (K. pneumoniae 113250) | MIC (E. coli 107115) | MIC (E. coli 94474) | MIC (E. coli 94393) | MIC (E. cloacae 121187) | further results
CC[C@H](C)CCCCC(=O)N[C@@H](CCN)C(=O)N[C@H](C(=O)N[C@@H](CCN)C(=O)N[C@H]1CCNC(=O)[C@H]([C@@H](C)O)NC(=O)[C@H](CCN)NC(=O)[C@H](CCN)NC(=O)[C@H](CC(C)C)NC(=O)[C@@H](CC(C)C)NC(=O)[C@H](CCN)NC1=O)[C@@H](C)O [Colistin, colistin] (X1-[Dab]T[Dab][Dab][Dab][dL]L[Dab][Dab]T; lactam 4-C (inferred); N-terminus assumed) | 1024 µg/mL (≈ 876 µM) | 0.5 µg/mL (≈ 0.428 µM) | 4 µg/mL (≈ 3.42 µM) | 2 µg/mL (≈ 1.71 µM) | 1 µg/mL (≈ 0.855 µM) | 0.5 µg/mL (≈ 0.428 µM) | 0.5 µg/mL (≈ 0.428 µM) | 1 µg/mL (≈ 0.855 µM) | 1 µg/mL (≈ 0.855 µM) | 0.5 µg/mL (≈ 0.428 µM) | 4 µg/mL (≈ 3.42 µM) | 0.25 µg/mL (≈ 0.214 µM) | 0.5 µg/mL (≈ 0.428 µM) | 0.125 µg/mL (≈ 0.107 µM) | 256 µg/mL (≈ 219 µM) | 256 µg/mL (≈ 219 µM) | 0.125 µg/mL (≈ 0.107 µM) | 16 µg/mL (≈ 13.7 µM) | 4 µg/mL (≈ 3.42 µM) | >128 µg/mL | Absolute MIC of antibiotic at 2 μg/mL GCol (E. coli ATCC 25922 [1]): 0.125 µg/mL; Absolute MIC of antibiotic at 2 μg/mL GPMB (E. coli ATCC 25922 [1]): 0.0313 µg/mL; FIC index antibiotic + GCol (E. coli ATCC 25922 [1]): 1.016; FIC index antibiotic + GPMB (E. coli ATCC 25922 [1]): 0.25; MIC alone (E. coli ATCC 25922 [1]; [9]): 0.125 µg/mL and 0.25 µg/mL; Fold-potentiation of antibiotic (E. coli ATCC 25922 [1]; at 2 μg/mL GCol): 1; Fold-potentiation of antibiotic (E. coli ATCC 25922 [1]; at 2 μg/mL GPMB): 8; Absolute MIC of antibiotic at 2 μg/mL GCol (A. baumannii ATCC 17978 [2]): 0.25 µg/mL; FIC index antibiotic + GPMB (A. baumannii ATCC 17978 [2]): 1.016; MIC alone (A. baumannii ATCC 17978 [2]; [9]): 0.25 µg/mL; Fold-potentiation of antibiotic (A. baumannii ATCC 17978 [2]; at 2 μg/mL GCol): 1; Fold-potentiation of antibiotic (A. baumannii ATCC 17978 [2]; at 2 μg/mL GPMB): 1; MIC (P. aeruginosa PA 108590): 1 µg/mL (≈ 0.855 µM); MIC (A. baumannii AB031): 0.25 µg/mL (≈ 0.214 µM); Absolute MIC of antibiotic at 4 μg/mL GCol (P. aeruginosa PAO1 [6]): 0.5 µg/mL; Absolute MIC of antibiotic at 4 μg/mL GPMB (P. aeruginosa PAO1 [6]): 1 µg/mL; MIC alone (P. aeruginosa PAO1 [6]; [9]): 0.5 µg/mL and 1 µg/mL; Fold-potentiation of antibiotic (P. aeruginosa PAO1 [6]; at 4 μg/mL GCol): 1; Fold-potentiation of antibiotic (P. aeruginosa PAO1 [6]; at 4 μg/mL GPMB): 1; MIC (E. cloacae 118564): >128 µg/mL
polymyxin B [PMB] | >128 µg/mL | ≤0.0625 µg/mL | 64 µg/mL | 0.5 µg/mL | 2 µg/mL | 0.25 µg/mL | 0.25 µg/mL | 0.25 µg/mL | 0.5 µg/mL | 2 µg/mL | 8 µg/mL | 0.25 µg/mL | 1 µg/mL | 0.5 µg/mL | >64 µg/mL | >64 µg/mL | ≤0.125 µg/mL | 16 µg/mL | 2 µg/mL | >64 µg/mL | MIC (P. aeruginosa PAO1 [7]): 0.5 µg/mL; concentration up to which Hep G2 cells maintained 100% viability (Hep G2 cells): 25 µM; concentration up to which HEK293 cells maintained >90% viability (HEK293 cells): 125 µM; MIC (E. coli ATCC 25922 [8]): 1 µg/mL; MIC (E. cloacae 118564): >64 µg/mL
